This is an account of results in US5468760A, “Aralkyl-N-hydroxyureas as inhibitors of 5-lipoxygenase and oxidation of low density lipoprotein” (American Home Products Corporation, priority 1993, dated 1995).

As a reminder, the ED50 is the dose that gives a 50% effect, or the effect in half of the subjects. What is called inhibition is the drop in the measured response relative to a control, in per cent. Usually inhibition in vivo stands for the share of the control response that was lost under treatment.

The target in assay [1] is T1, 5-Lipoxygenase (Homo sapiens, UniProt P09917).
T1 construct: endogenous in cells; host or cells: human whole blood from male donors (results expressed per 10^6 neutrophils)
T1 sequence (P09917 1-674): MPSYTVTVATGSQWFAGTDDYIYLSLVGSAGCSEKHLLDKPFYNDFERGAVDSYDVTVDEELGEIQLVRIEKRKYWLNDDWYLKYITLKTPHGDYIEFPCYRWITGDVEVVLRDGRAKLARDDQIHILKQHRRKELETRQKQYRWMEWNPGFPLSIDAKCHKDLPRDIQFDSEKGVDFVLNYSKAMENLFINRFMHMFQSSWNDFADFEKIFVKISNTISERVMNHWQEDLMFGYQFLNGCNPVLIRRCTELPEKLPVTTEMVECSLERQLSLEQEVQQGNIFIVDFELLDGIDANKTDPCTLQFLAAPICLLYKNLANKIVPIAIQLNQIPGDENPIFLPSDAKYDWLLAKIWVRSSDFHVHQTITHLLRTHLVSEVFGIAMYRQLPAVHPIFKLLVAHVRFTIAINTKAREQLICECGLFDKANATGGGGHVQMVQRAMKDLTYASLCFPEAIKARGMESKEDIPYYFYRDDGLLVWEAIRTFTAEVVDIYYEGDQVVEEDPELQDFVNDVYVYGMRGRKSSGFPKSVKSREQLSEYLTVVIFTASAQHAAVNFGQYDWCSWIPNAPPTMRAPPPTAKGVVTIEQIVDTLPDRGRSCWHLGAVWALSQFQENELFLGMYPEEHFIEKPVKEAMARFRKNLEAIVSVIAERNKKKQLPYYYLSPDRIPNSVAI
The assay can be described thus: Inhibition of 5-Lipoxygenase in Human Whole Blood (LTB4, calcium ionophore A23187). In kind it is cell-based. Here is the method:
1. Inhibition of 5-Lipoxygenase in Human Whole Blood
Blood is obtained in 50-100 ml quantities from male donors. White blood cell counts and differentials are made. Two ml of blood are placed in a 15 ml polypropylene test tube. Test compounds are solubilized in dimethylsulfoxide and diluted in 1:10 in 10% bovine serum albumin in phosphate buffered saline, pH 7.4 resulting in a final dimethylsulfoxide concentration of 0.1% in the blood. Then, solutions of test compounds are added to the blood in a shaking water bath at 37° C. for 10 minutes prior to the addition of 30 μM calcium ionophore (A23 187, Sigma). After ionophore administration, whole blood samples are mixed and incubated for 20 minutes at 37° C. in a shaking water bath. Incubation is terminated by placing samples in an ice bath and immediately adding ethylene glycol-bis-(β-aminoethyl ether)-N,N,N',N'-tetraaceticacid (10 mM). Samples are mixed and centrifuged at 1200 x g for 15 minutes at 4° C. Preparation of samples for evaluation by RIA or ELISA is carried out by the following protocol. Plasma is removed from sample tubes, placed in 15 ml polypropylene test tubes containing 8 ml methanol, and then vortexed to precipitate protein. Samples are stored at -70° C. overnight. The next day, samples are centrifuged at 200 x g for 15 minutes at 4° C. to pellet the precipitate. Samples are dried in a Savant SpeedVac Concentrator, Model SVC 200H, reconstituted to original volume with ice cold RIA or ELISA buffer, and stored at -70° C. until assayed. The assay for eicosanoids (LTB4, TxB2, and PGE2) is performed as described by the manufacturer of the [^3 H]-RIA kit or ELISA kit (LTB4 -Amersham, TxB2 and PGE2 -Caymen Chemical).
The total eicosanoid level in 2 ml of blood is calculated and reported as ng/10^6 neutrophils. Significance is determined by a one-way analysis of variance with least significant difference (LSD) comparisons to control (p≤0.05) and IC50 's (μM) are determined by regression analysis (Finney, 1978). Drug effects are expressed as percent change from control values.

Assay [2] deals with LTB4 Synthesis. The assay can be described thus: Reverse Passive Arthus Reaction (pleurisy), LTB4 in pleural exudate. Type of assay: in vivo, rat (male Lewis). The note with it: for ED50: Rattus norvegicus, po, values in parentheses are ED50, read-out: (ED50) Inhibition of LTB4; for ED50 / % Inhibition of LTB4: standard drugs. Here is the method:
3. Reverse Passive Arthus Reaction
A reverse passive Arthus reaction is induced in the pleural cavity of male Lewis rats (150-200 g; fasted overnight prior to use) by the intravenous administration of bovine serum albumin (BSA; 4 mg/0.2 ml) followed 30 minutes later by the injection of rabbit anti-BSA (1 mg/0.2 ml; lyophilized IgG fraction; Organon Teknika, West Chester, Pa.) into the right pleural space under halothane anesthesia. Drugs or vehicle (0.5% Tween-80) control are administered orally in a volume of 1 ml/100 g body weight at 1 hour prior to the anti-BSA. Animals are sacrificed at either the time of peak eicosanoid production (i.e. 5 minutes after anti-BSA for immunoreactive TxB2, 10 minutes for immunoreactive LTB4, 20 minutes for immunoreactive LTC4) or at the time of peak neutrophil infiltration (4 hours after anti-BSA) by CO2 inhalation. The pleural cavity is then exposed., the fluid exudate removed by gentle vacuum aspiration and the volume of exudate is recorded. For the determination of cellular infiltration, the pleural cavity is rinsed with 3 ml of 0.1% EDTA in sterile saline, and the recovered wash is pooled with the exudate. Cell number is determined on a model ZBI Coulter counter. For determination of eicosanoid production, undiluted pleural exudate is microfuged and the supernatant is extracted with ethanol (8-10 times volume). Extracts are either stored at -20° C., or are evaporated to dryness under a stream of N2 and reconstituted in radioimmunoassay (RIA) buffer.
Eicosanoids are quantitated by RIA according to the procedure specified by the RIA kit manufacturer (Advanced Magnetics, Cambridge, Mass.). Briefly, 100 μl of ^3 H-labeled eicosanoid and 100 μl of specific antibody are sequentially added to 100 μl of extracted pleural exudate in BGG-phosphate buffer which contains 0.01M phosphate, 0.1% bovine gamma globulin and 0.1% sodium azide at pH 7.0. Antibody-bound eicosanoid is separated from unbound eicosanoid by the addition of 750 μl of dextran (0.4%)-coated charcoal (Norit A) containing 0.1% sodium azide. The mixture is centrifuged at 2000 RPM at 5° C. for 15 minutes to pellet the charcoal and adsorbed unbound eicosanoid. Antibody-bound labeled eicosanoid is quantitated by counting in a liquid scintillation counter, and is correlated to concentration by a standard curve.

In assay [3] the test system is LT-dependent bronchoconstriction. The assay can be described thus: Inhibition of Bronchoconstriction in Guinea Pigs Induced by Exogenously Administered Antigen. As to conditions: Cavia porcellus, 5 min, 5 min post-antigen challenge; for inhibition in vivo at 10 mg/kg: iv, 10 mg/kg i.v. In kind it is in vivo, guinea pig (male). Here is the method:
4. Inhibition of Brochoconstriction in Guinea Pigs Induced by Exogenously Administered Antigen
Male guinea pigs (Charles River, Wilmington, Mass.) were sensitized 3-4 weeks prior to antigen challenge by administration of 2 i.m. injections of ovalbumin, 1 into each hind limb (35 mg total). Sensitized animals (500-600 g) were fasted overnight prior to experimentation. Conscious animals were then dosed p.o. with drug or vehicle alone (0.5% Tween 80 in H2 O) at the indicated times prior to antigen challenge, or anesthetized animals were dosed i.v. with drug or vehicle alone (DMSO) 5 min prior to antigen challenge. Animals were anesthetized by urethane (2.8 g/kg i.p.). A carotid artery and jugular vein were cannulated to allow for the monitoring of blood pressure and the administration of drugs, respectively. The trachea was then cannulated and connected to a Harvard Apparatus rodent ventilator (S. Natick, Mass.). Spontaneous respiration was abolished by the administration of succinylcholine (2.5 mg/kg i.v.). The animals were then ventilated with room air at a rate of 65 breaths per min. Airway inflation pressure was measured using a Statham pressure transducer (Gould Instruments, Cleveland, Ohio) connected to the tracheal cannula via a side-arm and recorded on a Grass Instruments recorder (Quincy, Mass.). The tidal volume (approximately 10 cc/kg) was adjusted to give a baseline inflation pressure of 8-10 cm H2 O at end inspiration. Animals were then allowed 20 min to stabilize.
Following the stabilization period, animals were given i.v. injections of pyrilamine (5 mg/kg), propranolol (0.1 mg/kg) and indomethacin (10 mg/kg) at 15, 10 and 5 min, respectively, prior to antigen challenge. This pretreatment results in an LT-dependent bronchoconstriction following antigen challenge, which was accomplished by i.v. administration of ovalbumin (10 mg/kg). Only one bronchoconstriction per animal was induced. End-inspiratory inflation pressure (in cm H2 O over baseline) was measured at 5 min post-antigen challenge. A mean value and standard error for the % inhibition of control bronchoconstriction in each drug-treated group was then calculated.

“1,3-Dihydroxy-1-[4-(5-methyl-2-phenyl-oxazol-4-ylmethoxy)-benzyl]-urea [Example 17]”: the “% Inhibition of LTB4” value in assay [1] (10 μM) was 83%.

`NC1=NN(c2cccc(C(F)(F)F)c2)CC1` [BW755C, reference compound]: the ED50 in assay [2] (p.o.) came out at 23 mg/kg. With `O=C(O)Cc1ccccc1Nc1c(Cl)cccc1Cl` [Diclofenac, reference compound], the “% Inhibition of LTB4” value in assay [2] (10 mg/kg p.o.) came out at 0%. On to `NC(=S)N(O)Cc1cccc(OCc2coc(-c3ccc(F)cc3)n2)c1` [Example 4, 1-Hydroxy-1-[3-[2-(4-fluoro-phenyl)-oxazol-4-ylmethoxy]-benzyl]-thiourea], for which the inhibition at 1 µM in assay [1] stood at 61%. In assay [3], this compound returned an inhibition in vivo at 10 mg/kg of 53%. Regarding `COc1ccc(-c2nc(COc3cccc(CN(O)C(N)=O)c3)cs2)cc1` [Example 7, 1-Hydroxy-1-[3-[2-(4-methoxy-phenyl)-thiazol-4-ylmethoxy]-benzyl]-urea], the inhibition at 1 µM in assay [1] came out at 50%. Moreover, in assay [3], the inhibition in vivo at 10 mg/kg is 58%. The compound further showed an inhibition in vivo at 25 mg/kg in assay [3] (po, 25 mg/kg p.o.) of 18%. For `Cc1oc(-c2ccc(Cl)cc2)nc1COc1cccc(CN(O)C(N)=O)c1` [Example 8, 1-[3-[2-(4-Chloro-phenyl)-5-methyl-oxazol-4-ylmethoxy]-benzyl]-1-hydroxy-urea], in assay [1], the inhibition at 1 µM was 77%. For the same compound, the “% Inhibition LTB4 Synthesis” value in assay [2] (10 mg/kg, p.o.) turned out to be 39%. Besides, the inhibition in vivo at 10 mg/kg in assay [3] was found to be 41%. For the compound `Cc1oc(-c2cccc(C(F)(F)F)c2)nc1COc1cccc(CN(O)C(N)=O)c1` [Example 10, 1-Hydroxy-1-[3-[2-(3-trifluoromethyl-phenyl)-5-methyl-oxazol-4-ylmethoxy]-benzyl]-urea], the inhibition at 1 µM in assay [1] is 51%. Regarding `Cc1oc(-c2cc(C(F)(F)F)cc(C(F)(F)F)c2)nc1COc1cccc(CN(O)C(N)=O)c1` [Example 11, 1-[3-[2-(3,5-Bis-trifluoromethyl-phenyl)-5-methyl-oxazol-4-ylmethoxy]-benzyl]-1-hydroxy-urea], in assay [1] (10 μM), the inhibition at 10 µM was determined as 57%.

As to `Cc1oc(-c2ccc(C(F)(F)F)cc2)nc1COc1cc(F)cc(CN(O)C(N)=O)c1` [Example 12, 1-[3-Fluoro-5-[5-methyl-2-(4-trifluoromethyl-phenyl)-oxazol-4-ylmethoxy]-benzyl]-1-hydroxy-urea], the inhibition at 10 µM in assay [1] (10 μM) amounted to 85%.

Regarding `Cc1oc(-c2ccccc2)nc1COc1cccc(C(C)N(O)C(N)=O)c1` (stereo not shown) [Example 14, 1-Hydroxy-1-[1-[3-(5-methyl-2-phenyl-oxazol-4-ylmethoxy)-phenyl]-ethyl]-urea], in assay [1] (10 μM), the inhibition at 10 µM was 80%. On to `CC(/C=C/c1cccc(OCc2csc(-c3ccccc3)n2)c1)N(O)C(N)=O` (stereo not shown) [Example 15, (E)-1-Hydroxy-1-[1-methyl-3-[3-(2-phenyl-thiazol-4-ylmethoxy)-phenyl]-allyl]-urea], for which the inhibition at 10 µM in assay [1] (10 μM) was 47%. As for `Cc1oc(-c2ccc(Cl)cc2)nc1COc1cccc(/C=C/C(C)N(O)C(N)=O)c1` (stereo not shown) [Example 16, (E)-1-[3-[3-[2-(4-chlorophenyl)-5-methyl-oxazol-4-ylmethoxy]-phenyl]-1-methyl-allyl]-1-hydroxyl-urea], the inhibition at 10 µM in assay [1] (10 μM) stood at 57%. As to `Cc1oc(-c2ccccc2)nc1COc1cccc(CN(O)C(=O)N(C)O)c1` [Example 18, 1,3-Dihydroxy-3-methyl-1-[3-(5-methyl-2-phenyl-oxazol-4-ylmethoxy)benzyl]-urea], the inhibition at 10 µM in assay [1] (10 μM) was 69%. As for `COc1ccc2c(c1)c(CC(=O)O)c(C)n2C(=O)c1ccc(Cl)cc1` [Indomethacin, reference compound], the “% Inhibition of LTB4” value in assay [2] (4 mg/kg p.o.) is listed as 12%. On to `CC(C(=O)O)c1cccc(C(=O)c2ccccc2)c1` (stereo not shown) [Ketoprofen, reference compound], for which the “% Inhibition of LTB4” value in assay [2] (10 mg/kg p.o.) turned out to be 35%.

On to `COc1ccc2cc([C@H](C)C(=O)O)ccc2c1` [Naproxen, reference compound], for which the “% Inhibition of LTB4” value in assay [2] (4 mg/kg p.o.) is 0%. For the compound `O=C1CCN(c2ccccc2)N1` [Phenidone, reference compound], in assay [2] (p.o.), the ED50 is 10 mg/kg.
